Source: patent publication US20230052740A1, “MODULATORS OF CIRCADIAN RHYTHMS AND USES THEREOF” (The Regents of the University of California, priority 2019, published 2023)
Read-outs that look alike come from different tables or passages of the source.

Assays:
[1] = target: T1, MT2 (Homo sapiens, UniProt P49286); experiment: cAMP assay (GloSensor), isoproterenol-stimulated cAMP in HEK cells; type: cell-based; set-up: expressed in transfected cells; host or cells: HEK-T (HEK-293 T) cells, co-transfected with GloSensor DNA; conditions: for hMT2 pEC50: FIG. 3D-3F, transiently expressed receptor, isoproterenol-stimulated cAMP production; for hMT2 Schild slope / hMT2 pKB: Schild analysis, competitive antagonism of melatonin
T1 sequence (P49286 1-362): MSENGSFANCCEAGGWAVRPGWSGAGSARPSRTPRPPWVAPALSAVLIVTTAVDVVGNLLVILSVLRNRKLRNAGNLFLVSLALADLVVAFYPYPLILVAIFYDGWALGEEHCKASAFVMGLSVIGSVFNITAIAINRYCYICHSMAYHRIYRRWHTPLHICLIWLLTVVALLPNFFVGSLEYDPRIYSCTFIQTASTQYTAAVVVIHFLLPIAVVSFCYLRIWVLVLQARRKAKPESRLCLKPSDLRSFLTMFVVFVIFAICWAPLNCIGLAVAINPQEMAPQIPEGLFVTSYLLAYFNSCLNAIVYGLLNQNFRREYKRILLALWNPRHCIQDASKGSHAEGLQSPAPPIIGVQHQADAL
Experimental: MT1 and MT2 receptors were tested using Promega's spilt luciferase based GboSensor cAMP biosensor technology. HEK-T cells were plated in 15 cm cell culture dish (at a density of 18 million cells) containing DMEM composed of 10% dialyzed FBS, 2 mM L-glutamine, 100 units/ml penicillin G, 100 μg/ml streptomycin for 4-6 hour. Then, cells were co-transfected with 8 μg of construct which encodes either MT1 or MT2 (de-Tangonized constructs) and […] of Glosensor DNA. […] The next day, cell medium were discarded and loaded with 20 μl of assay buffer (1×HBSS, 20 mM HEPES, pH 7.4, 0.1% BSA). To measure agonist activity of MT1 or MT2 receptor, 10 μl of test compound solution at 3× final concentration was added for 15 minutes followed by addition of 10 μl of luciferin/isoproterenol mixture (at a final concentration of 4 mM and 200 nM respectively) for another 15 mins for luminescence quantification. Then, plates were counted using SpectraMax luminescence reader (Molecular Device). Data were analyzed using GraphPad Prism 6.0.

[2] = Mouse pharmacokinetic (PK) studies; type: in vivo; conditions: for Brain/Plasma Ratio: 30′; for T1/2: plasma
[3] = tested on: C3H/HeN mice; experiment: Phase shift of circadian running wheel activity onset in constant dark; type: in vivo, mouse; conditions: for advance of the onset of activity: 0.9 μg/mouse (~30 μg/Kg) s.c., CT10 (dusk), 3 days; for advance of the onset of running wheel activity: 30 μg/mouse (1 mg/Kg) s.c., CT10, WT; for EC50 of in vivo activity (circadian phase shift): mouse
From the text: Male and female C3H/HeN (C3H) wild-type (WT), MT1 knockout (MT1KO), and MT2 knockout (MT2KO) mice (average 6.28 months) used in this study were raised in our breeding colony at University at Buffalo. […] Genotype was confirmed using tail samples at the end of each experiment and was verified periodically during the tenure of the colony. The strains of mice in our breeding colony were re-derived periodically by backcrossing with WT mice to reduce genetic drift.
Mice were group housed (3-5 per cage) with corncob bedding in polycarbonate translucent cages (30×19 cm) and maintained in a 14/10 light-dark (LD) cycle (Zeitgeber time 0 or ZT0 corresponds to Lights ON and ZT 14 to Lights OFF) in temperature and humidity controlled rooms with ad libitum access to food and water in the Laboratory Animal Facility at the University at Buffalo. Light levels were 200-300 lux at the level of the cage. Treatments and animal care performed in the dark were under a dim red safelight (15 watts, Kodak 1A filter) with illuminance of less than 3-5 lux (Benloucif, S. & Dubocovich, M. L. J Biol Rhythms 11, 113-125, (1996). All experimental procedures using mice were conducted in accordance with guidelines set forth by the National Institutes of Health and approved by the University at Buffalo Institutional Animal Care and Use Committee.
Circadian rhythm phase was determined for each mouse using the onset of running wheel activity defined as CT12 (Circadian Time 12). Running wheel activity was measured continuously via magnetic microswitches detecting wheel revolutions with a computer equipped with Clocklab data collection Software™ (Actimetrics: Wilmette, Ill.). All actigraphy data was visualized and analyzed using ClockLab™ and MATLAB™ software. All mice were individually housed in cages (33×15 cm) equipped with running wheels in light-tight ventilated cabinets with controlled temperature and LD cycles (Phenome Technologies: Skokie, Ill.). Male and female mice were housed in separate cabinets for all experiments.
Following a period of 14 days in a LD cycle mice were placed in constant dark (DD) beginning at ZT12 (dark onset). Mice were keptin DD (2-3 weeks) untilastable free-running phase of running wheel activity rhythm onset was established. Circadian times of treatment were predicated from best fit lines of running wheel activity onsets for of running either pre (7-14 days) and post (7-14 days) treatment. Treatment times were at CT10 (CT9-11) and CT2 (CT1-3) within a 3 hour window. […] Vehicle or drug treatments were repeated for 3 consecutive days at the selected circadian time following the three-pulse treatment protocol described (Benloucif, supra). Phase shifts were quantified using the best-fit lines for onsets of activity during pre and post treatment periods. Differences are characterized as phase delays (pre-treatment ahead of post treatment best fit line onset) or phase advances (post treatment ahead of pre treatment best fit line onset) of running wheel activity onset rhythms.
All statistical analyses as described in further detail for each experiment were conducted using GraphPad Prism 8™ (La Jolla, Calif.). All data sets were visualized for normality using QQ plots of predicted vs. actual residuals. Actigraphy data was generated for visualization blind to treatment prior to the quantification and statistical analysis stages. […] Data in FIGS. 4F & 4G were compared via a two-way ANOVA (3×2: genotype x treatment) with Tukey's post hoc analyses (P<0.05). Comparisons for FIG. 4L, FIGS. 11H-11J were made by mixed effect two-way repeated measures ANOVA (treatment×time) with Sidak's post hoc test (P<0.05). Number of days to re-entrainment was compared via one-way ANOVA or two-way ANOVA for FIG. 4M & FIG. 4N with a Dunnet's & Tukey's post hoc test (P<0.05) respectively. P values and values for statistical analyses are included in figure legends. […]

Row | SMILES | hMT2 pEC50 [1] | AUC [2] [ng·h/mL] | CL [2] [mL/min/kg] | Cmax [2] [ng/mL] | Vss [2] [L/kg] | Brain/Plasma Ratio [2] | T1/2 [2] [min] | hMT2 Schild slope [1] | hMT2 pKB [1] | advance of the onset of activity ([3]; WT) | advance of the onset of running wheel activity ([3]; in words) | EC50 of in vivo activity (circadian phase shift) [3] [µg/kg] | other results
1 | COc1ccc(Br)c(CNc2cccnc2)c1 [ZINC128734226] | 8.15±0.09 | 282.1 | 117.9 | 1922.8 | 1.11 | 1.58 (30′) | 17.4 | – | – | – | – | – | Emax ([1]; HEK293, FIG. 3F, normalized to maximal melatonin effect, read-out: hMT2 Emax): 89 ± 3%; Emax ([1]; HEK293, Table 2, agonist, normalized to melatonin response, read-out: MT2 % Emax (converted)): 89%; Emax ([1]; HEK293, Table 4, agonist, read-out: Emax % MT2): 80%; pIC50 MT2 ([1]; Table 4, agonist): 8.2; EC50 ([1]; agonist, isoproterenol-stimulated cAMP inhibition, read-out: EC50 at MT2): 6.3 nM; effect on circadian phase ([3]; 0.9 or 30 μg/Kg doses, CT10, in words): did not significantly affect circadian phase
2 | Clc1ccc(CNc2cccc(-c3nnc[nH]3)c2)c(Br)c1 [ZINC555417447] | 5.66±0.10 | 494.5 | 67.11 | 1948.6 | 1.11 | 3.03 (30′) | 16.2 | 1.3±0.4 | 6.2±0.1 | approximately 1 hour | advanced the onset of running wheel activity with an amplitude equivalent to, or even larger than that of melatonin | 30 | Emax ([1]; HEK293, FIG. 3D-3E, normalized to isoproterenol-stimulated basal activity, read-out: hMT2 Emax): -84 ± 9%; Emax ([1]; HEK293, Table 2, cell marked Inverse (inverse agonist), read-out: MT2 % Emax (converted)): 84%; EC50 ([1]; Table 4, IA (inverse agonist), read-out: pEC50 MT2 (IA) (converted)): 1000 nM; phase shift of RW activity onset at CT2 ([3]; 30 μg/mouse s.c., CT2 (dawn), WT, MT1KO, MT2KO, in words): did not phase shift RW activity onset; phase advance activity in MT1KO mice ([3]; 30 μg/mouse s.c., CT10, MT1KO, in words): ablation of the activity; phase advance activity in MT2KO mice ([3]; 30 μg/mouse s.c., CT10, MT2KO, in words): maintenance of its activity
3 | CC(C)c1ccc(CNc2cccc(-c3ncn[nH]3)c2)cc1 [ZINC157673384] | 6.18±0.04 | 563.8 | 58.48 | 1299.6 | 1.38 | 1.43 (30′) | 19.2 | 1.0±0.1 | 6.7±0.1 | approximately 1 hour | advanced the onset of running wheel activity with an amplitude equivalent to, or even larger than that of melatonin | 30 | hMT2 Emax ([1]; FIG. 3D-3E, normalized to isoproterenol-stimulated basal activity): −153±14%; MT2 % Emax ([1]; Table 2, cell marked Inverse (inverse agonist)): 153 ± 14%; pEC50 MT2 (IA) ([1]; Table 4, IA (inverse agonist)): 6.5
